Reference: publication PMC9587990, “Molecular basis for isoform-selective inhibition of presenilin-1 by MRK-560” (Nature Communications, 2022)
Values joined by “and” are separate entries in the source; they are usually repeats but may differ in a detail not shown here. Identical values can stand only once. Like-named read-outs stand apart in the source and are kept apart here.

Columns and labels:
Experiment in all cases: in vitro cleavage assay, Aβ40 production by AlphaLISA
Format in all cases: biochemical
[1] = molecular target: T1, PS1 TL281-282PI γ-secretase complex (Homo sapiens, UniProt P49768, L282I/T281P); settings: PS1TL 281 282PI, replicates
T1 construct: made in house
Description: (§1) In total we generated six variants, including single and double residue swapping of Thr281/Leu282 in PS1 with Pro287/Ile288 in PS2, respectively. MRK-560 response to the six PS1/PS2 mutant-containing complexes, each purified to homogeneity, was examined in the in vitro cleavage assay (Fig. 4). All proteins used for the activity assay were sub-cloned, expressed and purified as described. Protein concentration was determined using the Bradford method. […] The cleavage reaction was conducted at 37 °C for 4 h. The cleaved products of these substrates were detected using a monoclonal antibody (1:1000 dilution, CW0299, CWBio) against the C-terminal Myc tag. Aβ40 production was detected using the AlphaLISA assay (PerkinElmer) as described. The IC50 values and the inhibition curves were calculated using Prism 8.0. Statistical analysis of Aβ40 was performed using Prism 8 (GraphPad Software, San Diego, CA, USA). IC50 were determined by a four-parameter logistic regression. The statistical details can be found in Figs. 1, 4 and legends. Data are expressed as mean ± SD.

[2] = molecular target: T2, PS2 I288L γ-secretase complex (Homo sapiens, UniProt P49810, I288L); settings: for remaining activity at 0.002 µM / remaining activity at 0.04 µM / remaining activity at 0.2 µM / remaining activity at 1 µM / remaining activity at 10 µM / remaining activity at 20 µM: 4 h
T2 construct: made in house
Description: as §1

[3] = molecular target: T3, PS2 P287T γ-secretase complex (Homo sapiens, UniProt P49810, P287T); settings: for remaining activity at 0.002 µM / remaining activity at 0.04 µM / remaining activity at 0.2 µM / remaining activity at 1 µM / remaining activity at 10 µM / remaining activity at 20 µM: 4 h
T3 construct: made in house
Description: as §1

[4] = MRK-560 2 nM, mean of 3 replicates, read-out: Normalized production (control=1), Mean
[5] = MRK-560 2 nM, replicates, read-out: Normalized production (control=1)
[6] = MRK-560 40 nM, mean of 3 replicates, read-out: Normalized production (control=1), Mean
[7] = MRK-560 40 nM, replicates, read-out: Normalized production (control=1)
[8] = MRK-560 200 nM, mean of 3 replicates, read-out: Normalized production (control=1), Mean
[9] = MRK-560 200 nM, replicates, read-out: Normalized production (control=1)
[10] = MRK-560 1 μM, mean of 3 replicates, read-out: Normalized production (control=1), Mean
[11] = MRK-560 1 μM, replicates, read-out: Normalized production (control=1)
[12] = MRK-560 10 μM, mean of 3 replicates, read-out: Normalized production (control=1), Mean
[13] = MRK-560 10 μM, replicates, read-out: Normalized production (control=1)
[14] = MRK-560 20 μM, mean of 3 replicates, read-out: Normalized production (control=1), Mean
[15] = MRK-560 20 μM, replicates, read-out: Normalized production (control=1)

With `O=S(=O)(NC1CCC(c2cc(F)ccc2F)(S(=O)(=O)c2ccc(Cl)cc2)CC1)C(F)(F)F` (stereo not drawn) [MRK-560, N-[cis-4-[(4-chlorophenyl)sulfonyl]-4-(2,5-difluorophenyl)cyclohexyl]-1,1,1-trifluoromethanesulfonamide] the remaining activity at 10 µM ([1]; 4 h, MRK-560 10 μM, read-out: Normalized production (control=1)) was 1.43%, the “Caculated Aβ40 production” value ([1]; MRK-560 2 nM) was 380.9708 and 384.7930 and 381.0949 and the “raw data from α-Lisa reading” value ([1]; MRK-560 2 nM) was 58097 and 58620 and 58114. The “Caculated Aβ40 production” value ([1]; MRK-560 10 nM) was 372.0557 and 371.8958 and 369.4343, the “raw data from α-Lisa reading” value ([1]; MRK-560 10 nM) was 56873 and 56851 and 56512 and the “Caculated Aβ40 production” value ([1]; MRK-560 40 nM) was 339.5167 and 363.4357 and 337.7821. For the same compound, the “raw data from α-Lisa reading” value ([1]; MRK-560 40 nM) was 52356 and 55684 and 52113, the “Caculated Aβ40 production” value ([1]; MRK-560 200 nM) was 195.2943 and 180.8050 and 191.3579 and the “raw data from α-Lisa reading” value ([1]; MRK-560 200 nM) was 31350 and 29146 and 30753. The “Caculated Aβ40 production” value ([1]; MRK-560 1 μM) was 36.3190 and 36.2828 and 37.2900, the “raw data from α-Lisa reading” value ([1]; MRK-560 1 μM) was 6150 and 6144 and 6311 and the “Caculated Aβ40 production” value ([1]; MRK-560 10 μM) was 4.7413 and 3.9425 and 4.5046. The “raw data from α-Lisa reading” value ([1]; MRK-560 10 μM) was 864 and 729 and 824, the remaining activity at 0.002 µM [2, 4] was 110% and the remaining activity at 0.002 µM [2, 5] was 110%. For the same compound, the remaining activity at 0.04 µM [2, 6] was 65.9%, the remaining activity at 0.04 µM [2, 7] was 68% and the remaining activity at 0.2 µM [2, 8] was 17.7%. The remaining activity at 0.2 µM [2, 9] was 17.9%, the remaining activity at 1 µM [2, 10] was 5.3% and the remaining activity at 1 µM [2, 11] was 5.2%. The remaining activity at 10 µM [2, 12] was 1.39%, the remaining activity at 10 µM [2, 13] was 1.35% and the remaining activity at 20 µM [2, 14] was 1.69%. The remaining activity at 20 µM [2, 15] was 1.61%, the “Caculated Aβ40 production” value ([2]; MRK-560 2 nM, replicates) was 534.8273 and 537.0982 and 529.5442 and the “raw data from α-Lisa reading” value ([2]; MRK-560 2 nM, replicates) was 78346 and 78633 and 77677. For the same compound, the “Caculated Aβ40 production” value ([2]; MRK-560 40 nM, replicates) was 330.6964 and 306.7347 and 323.3048, the “raw data from α-Lisa reading” value ([2]; MRK-560 40 nM, replicates) was 51118 and 47725 and 50076 and the “Caculated Aβ40 production” value ([2]; MRK-560 200 nM, replicates) was 87.0033 and 86.1156 and 85.5883. For the same compound, the “raw data from α-Lisa reading” value ([2]; MRK-560 200 nM, replicates) was 14434 and 14291 and 14206, the “Caculated Aβ40 production” value ([2]; MRK-560 1 μM, replicates) was 25.2908 and 26.2376 and 25.7761 and the “raw data from α-Lisa reading” value ([2]; MRK-560 1 μM, replicates) was 4315 and 4473 and 4396. The “Caculated Aβ40 production” value ([2]; MRK-560 10 μM, replicates) was 6.5772 and 6.8972 and 6.7964, the “raw data from α-Lisa reading” value ([2]; MRK-560 10 μM, replicates) was 1174 and 1228 and 1211 and the “Caculated Aβ40 production” value ([2]; MRK-560 20 μM, replicates) was 7.8160 and 7.8990 and 8.9905. The “raw data from α-Lisa reading” value ([2]; MRK-560 20 μM, replicates) was 1383 and 1397 and 1581, the IC50 ([2]; mean ± SD) was 57 ± 10 nM and the remaining activity at 0.002 µM [3, 4] was 86.9%. It also gave a remaining activity at 0.002 µM [3, 5] of 87.8%, a remaining activity at 0.04 µM [3, 6] of 68.9% and a remaining activity at 0.04 µM [3, 7] of 70.8%. It also gave a remaining activity at 0.2 µM [3, 8] of 33.9%, a remaining activity at 0.2 µM [3, 9] of 34.2% and a remaining activity at 1 µM [3, 10] of 8.68%. The remaining activity at 1 µM [3, 11] was 8.69%, the remaining activity at 10 µM [3, 12] was 1.62% and the remaining activity at 10 µM [3, 13] was 1.63%. The remaining activity at 20 µM [3, 14] was 1.25%, the remaining activity at 20 µM [3, 15] was 1.14% and the “Caculated Aβ40 production” value ([3]; MRK-560 2 nM, replicates) was 520.0011 and 533.1358 and 528.5350. For the same compound, the “raw data from α-Lisa reading” value ([3]; MRK-560 2 nM, replicates) was 78132 and 77549 and 76464, the “Caculated Aβ40 production” value ([3]; MRK-560 40 nM, replicates) was 419.8422 and 429.7041 and 404.1611 and the “raw data from α-Lisa reading” value ([3]; MRK-560 40 nM, replicates) was 64687 and 61254 and 63367. For the same compound, the “Caculated Aβ40 production” value ([3]; MRK-560 200 nM, replicates) was 203.3520 and 207.5605 and 206.0857, the “raw data from α-Lisa reading” value ([3]; MRK-560 200 nM, replicates) was 33202 and 32980 and 32568 and the “Caculated Aβ40 production” value ([3]; MRK-560 1 μM, replicates) was 52.1767 and 52.7609 and 53.0714. The “raw data from α-Lisa reading” value ([3]; MRK-560 1 μM, replicates) was 8864 and 8915 and 8768, the “Caculated Aβ40 production” value ([3]; MRK-560 10 μM, replicates) was 9.7739 and 9.8808 and 9.9223 and the “raw data from α-Lisa reading” value ([3]; MRK-560 10 μM, replicates) was 1731 and 1738 and 1713. The “Caculated Aβ40 production” value ([3]; MRK-560 20 μM, replicates) was 7.8338 and 6.8972 and 8.0769, the “raw data from α-Lisa reading” value ([3]; MRK-560 20 μM, replicates) was 1228 and 1427 and 1386 and the IC50 ([3]; mean ± SD) was 106 ± 27 nM.
